Drawing on patent publication US8013006B2, this text covers IC50 for 74 compounds.

pIC50: −log10 of the molar value.

In the first assay the test system is HCV replicon. In words: microbe, parasite or virus in culture. The class given is cell-based. Conditions: Hepatitis C virus, 48 h, read-out: Replicon IC5Os. In general terms: In antiviral work, replicon cells carry a viral genome segment that copies itself.
`CCn1c(-c2ccc(NC(=O)Nc3ccc(C(C)C)cc3)cc2)c(C#N)c2ccc(OC)cc21` [Compound 445]: the pIC50 is 5.70 to 6.30.
On to `CCOC(=O)Nc1cccc(-c2c(C#N)c3ccc(OCCCCl)cc3n2CC)c1` [Compound 447], for which the pIC50 was above 6.30.
For `CCOC(=O)Nc1cccc(-c2c(C#N)c3ccc(OCCN4CCOCC4)cc3n2CC)c1` [Compound 492], the pIC50 is 5.70 to 6.30.
The same measure, in the same setting: in the case of `CCOC(=O)Nc1cccc(-c2c(C#N)c3ccc(OCCCN4CCOCC4)cc3n2CC)c1` [Compound 493] it was above 6.30.
Consider `CCOC(=O)Nc1cccc(-c2c(C#N)c3ccc(OCCCn4ccnc4)cc3n2CC)c1` [Compound 525], for which the pIC50 was 5.70 to 6.30.

Staying with this assay, now noted: Replicon IC50 values are determined by firefly luciferase signal; bicistronic replicon, 2 days; read-out: Replicon IC5Os.
Take `CCOc1ccc2cc(-c3ccc(NS(=O)(=O)CC)cc3)n(CC)c2c1` [Compound 411]: the pIC50 was 5.70 to 6.30.
Turning to `CCCn1c(-c2ccc(NS(C)(=O)=O)cc2)cc2ccc(OCC)cc21` [Compound 412], the pIC50 is below 5.70.
The same measure, in the same setting: the same measure for `CCOc1ccc2c(C#N)c(-c3ccc(NS(=O)(=O)CC)cc3)n(C)c2c1` [Compound 414]: 5.70 to 6.30.
On the same count and under the same terms, the same measure for `CCCn1c(-c2ccc(NS(C)(=O)=O)cc2)c(C#N)c2ccc(OCC)cc21` [Compound 417]: above 6.30; for `CCOc1ccc2c(C#N)c(-c3ccc(NS(C)(=O)=O)cc3)n(C(C)C)c2c1` [Compound 419]: 5.70 to 6.30; for `CCn1c(-c2ccc(NC(=O)CCl)cc2)c(C#N)c2ccc(C(F)(F)F)cc21` [Compound 421]: below 5.70.
The same measure, in the same setting: in the case of `CCn1c(-c2ccc(NC(=O)c3ccccc3)cc2)c(C#N)c2ccc(C(F)(F)F)cc21` [Compound 423] it was below 5.70; in that of `CCn1c(-c2ccc(NC(=O)N3CCOCC3)cc2)c(C#N)c2ccc(C(F)(F)F)cc21` [Compound 424], below 5.70.
On to `CCn1c(-c2ccc(NC(=O)C3CC3)cc2)c(C#N)c2ccc(C(F)(F)F)cc21` [Compound 425], for which the pIC50 was 5.70 to 6.30.
For `CCn1c(-c2ccc3ccccc3c2)c(C#N)c2ccc(OC)cc21` [Compound 426], the pIC50 is 5.70 to 6.30.
With `CCn1c(-c2ccc3c(ccn3C)c2)c(C#N)c2ccc(OC)cc21` [Compound 427], the pIC50 was 5.70 to 6.30.
Consider `CCn1c(-c2cccc(N)c2)c(C#N)c2cc(Cl)ccc21` [Compound 431], for which the pIC50 was below 5.70.
Regarding `CCNC(=O)c1ccc(-c2c(C#N)c3ccccc3n2CC)cc1` [Compound 432], the pIC50 is below 5.70.
As to `CCn1c(-c2ccc(C(=O)NC3CC3)cc2)c(C#N)c2ccccc21` [Compound 433], the pIC50 was below 5.70.
Still for that read-out and setting: in the case of `CCOC(=O)Nc1cccc(-c2c(C#N)c3cc(Cl)ccc3n2CC)c1` [Compound 434] it was below 5.70.
The same measure, in the same setting: in the case of `CCn1c(-c2ccc(S(N)(=O)=O)cc2)c(C#N)c2cc(F)ccc21` [Compound 437] it was below 5.70; in that of `CCn1c(-c2ccc(S(=O)(=O)NC)cc2)c(C#N)c2cc(F)ccc21` [Compound 438], below 5.70.
In the case of `CCn1c(-c2ccc(NS(C)(=O)=O)cc2)c(C#N)c2cc(F)ccc21` [Compound 439], the pIC50 was 5.70 to 6.30.
`CCn1c(-c2ccc(NS(=O)(=O)CC)cc2)c(C#N)c2cc(F)ccc21` [Compound 440]: the pIC50 was 5.70 to 6.30.
`CCOC(=O)Nc1cccc(-c2c(C#N)c3ccc(OCCCn4cncn4)cc3n2CC)c1` [Compound 441]: the pIC50 was 5.70 to 6.30.
Take `CCn1c(-c2ccc(NC(=O)NCCCCl)cc2)c(C#N)c2ccc(OC)cc21` [Compound 443]: the pIC50 was below 5.70.
As for `CCn1c(-c2ccc(NC(=O)NCCc3ccccc3)cc2)c(C#N)c2ccc(OC)cc21` [Compound 444], the pIC50 is below 5.70.
Consider `CCn1c(-c2ccc(NC(=O)Nc3ccc(Oc4ccccc4)cc3)cc2)c(C#N)c2ccc(OC)cc21` [Compound 446], for which the pIC50 was below 5.70.
In the case of `CCn1c(-c2ccc(NS(=O)(=O)c3cn(C)cn3)cc2)c(C#N)c2ccc(OC)cc21` [Compound 448], the pIC50 is below 5.70.
As for `CCn1c(-c2ccc(NS(=O)(=O)c3ccc(N4CCOCC4)nc3)cc2)c(C#N)c2ccc(OC)cc21` [Compound 449], the pIC50 is below 5.70.
On to `CCOC(=O)Nc1ccc(-c2c(C#N)c3ccc(C(F)(F)F)cc3n2CC)cc1` [Compound 450], for which the pIC50 was 5.70 to 6.30.
With `CCn1c(-c2ccc(NS(=O)(=O)c3cccs3)cc2)c(C#N)c2ccc(OC)cc21` [Compound 451], the pIC50 is below 5.70.
For the compound `CCn1c(-c2ccc(NS(=O)(=O)c3cccc4cccnc34)cc2)c(C#N)c2ccc(OC)cc21` [Compound 452], the pIC50 was below 5.70.
Turning to `CCCOC(=O)Nc1ccc(-c2c(C#N)c3ccc(C(F)(F)F)cc3n2CC)cc1` [Compound 453], the pIC50 was 5.70 to 6.30.
The same measure, in the same setting: the same measure for `CCn1c(-c2ccc(NC(=O)OCc3ccccc3)cc2)c(C#N)c2ccc(C(F)(F)F)cc21` [Compound 457]: 5.70 to 6.30; for `CCn1c(-c2ccc(N)cc2)c(C#N)c2cc(-c3cccc(OC)c3)ccc21` [Compound 459]: 5.70 to 6.30; for `CCn1c(-c2cccc(N)c2)c(C#N)c2cc(-c3cccc(OC)c3)ccc21` [Compound 460]: 5.70 to 6.30.
For `CCOc1ccc2cc(-c3ccc(NS(=O)(=O)CC)cc3)n(CC(C)C)c2c1` [Compound 465], the pIC50 is below 5.70.
On the same count and under the same terms, the same measure for `CCOc1ccc2cc(-c3ccc(NS(C)(=O)=O)cc3)n(C3CCC3)c2c1` [Compound 466]: 5.70 to 6.30.
Same read-out and setting: the same measure for `CCOc1ccc2cc(-c3ccc(NS(=O)(=O)CC)cc3)n(C3CCC3)c2c1` [Compound 467]: 5.70 to 6.30.
Consider `CCS(=O)(=O)Nc1ccc(-c2c(C#N)c3ccc(OC)cc3n2C(C)C)cc1` [Compound 468], for which the pIC50 was above 6.30.
On to `CCn1c(-c2ccc(N)cc2)c(C#N)c2ccc(OCCCl)cc21` [Compound 476], for which the pIC50 was 5.70 to 6.30.
As to `CCn1c(-c2ccc(NS(C)(=O)=O)cc2)c(C#N)c2ccc(OCCN3CCCCC3)cc21` [Compound 479], the pIC50 was below 5.70.
`CCn1c(-c2ccc(NS(C)(=O)=O)cc2)c(C#N)c2ccc(OCCN3CCN(C)CC3)cc21` [Compound 481]: the pIC50 was below 5.70.
On the same count and under the same terms, the same measure for `CCn1c(-c2ccc(NS(C)(=O)=O)cc2)c(C#N)c2ccc(OCCN(C)CCOC)cc21` [Compound 482]: 5.70 to 6.30.
Still for that read-out and setting: in the case of `CCn1c(-c2cccc(N)c2)c(C#N)c2cc(OC)ccc21` [Compound 483] it was below 5.70.
On the same count and under the same terms, the same measure for `CCn1c(-c2nc3ccccc3s2)c(C#N)c2ccc(OC)cc21` [Compound 484]: below 5.70.
For `CCOC(=O)Nc1cccc(-c2c(C#N)c3cc(-c4cccc(OC)c4)ccc3n2CC)c1` [Compound 485], the pIC50 was below 5.70.
`CCCOC(=O)Nc1cccc(-c2c(C#N)c3cc(-c4cccc(OC)c4)ccc3n2CC)c1` [Compound 486]: the pIC50 is 5.70 to 6.30.
As for `CCn1c(-c2ccc(NS(C)(=O)=O)cc2)c(C#N)c2cc(-c3cccc(OC)c3)ccc21` [Compound 487], the pIC50 was 5.70 to 6.30.
With `CCn1c(-c2ccc(NS(=O)(=O)CC)cc2)c(C#N)c2cc(-c3cccc(OC)c3)ccc21` [Compound 488], the pIC50 was above 6.30.
With `CCn1c(-c2cccc(NC(=O)OCC3CCCC3)c2)c(C#N)c2ccc(OC)cc21` [Compound 489], the pIC50 is 5.70 to 6.30.
On the same count and under the same terms, the same measure for `CCn1c(-c2cccc(NC(=O)OC3CCCC3)c2)c(C#N)c2ccc(OC)cc21` [Compound 490]: 5.70 to 6.30; for `CCOC(=O)Nc1cccc(-c2c(C#N)c3ccc(OCCn4cncn4)cc3n2CC)c1` [Compound 491]: below 5.70; for `CCOC(=O)Nc1cccc(-c2[nH]c3cc(OC)ccc3c2C#N)c1` [Compound 494]: below 5.70.
For the compound `CCn1c(-c2ccc(NS(C)(=O)=O)cc2)c(C#N)c2ccc(OCCn3ccnc3)cc21` [Compound 496], the pIC50 is 5.70 to 6.30.
In the case of `CCn1c(-c2ccc(NS(C)(=O)=O)cc2)c(C#N)c2ccc(OCCn3cncn3)cc21` [Compound 497], the pIC50 was below 5.70.
Same read-out and setting: the same measure for `CCn1c(-c2cccc(NC(=O)OCc3ccc(C(C)C)cc3)c2)c(C#N)c2ccc(OC)cc21` [Compound 500]: below 5.70; for `CCn1c(-c2cccc(NC(=O)OC3CCOC3)c2)c(C#N)c2ccc(OC)cc21` (centres unmarked) [Compound 502]: below 5.70; for `CCn1c(-c2cccc(NC(=O)O[C@@H]3CCOC3)c2)c(C#N)c2ccc(OC)cc21` [Compound 503]: below 5.70.
With `CCOC(=O)Nc1cccc(-c2c(C#N)c3ccc(OCCCl)cc3n2CC)c1` [Compound 504], the pIC50 is below 5.70.
On the same count and under the same terms, the same measure for `CCn1c(-c2cccc(NS(=O)(=O)CC)c2)c(C#N)c2cc(OC)ccc21` [Compound 505]: below 5.70.
As to `CCOC(=O)Nc1cccc(-c2c(C#N)c3cc(OC)ccc3n2CC)c1` [Compound 506], the pIC50 is below 5.70.
As to `CCn1c(-c2cccc(NC(=O)OC(C)C)c2)c(C#N)c2cc(OC)ccc21` [Compound 507], the pIC50 is below 5.70.
Consider `CCCOC(=O)Nc1cccc(-c2c(C#N)c3cc(OC)ccc3n2CC)c1` [Compound 508], for which the pIC50 is below 5.70.
With `CCn1c(-c2cccc(NC(=O)OCCCCl)c2)c(C#N)c2cc(OC)ccc21` [Compound 509], the pIC50 is below 5.70.
Same read-out and setting: the same measure for `CCCNC(=O)Nc1cccc(-c2c(C#N)c3cc(OC)ccc3n2CC)c1` [Compound 511]: below 5.70; for `CCOC(=O)NC(=O)Nc1cccc(-c2c(C#N)c3cc(OC)ccc3n2CC)c1` [Compound 512]: below 5.70; for `CCn1c(-c2cccc(NC(=O)Nc3cccc(C(F)(F)F)c3)c2)c(C#N)c2cc(OC)ccc21` [Compound 513]: below 5.70.
Still for that read-out and setting: in the case of `CCn1c(NC)c(C#N)c2ccc(C(F)(F)F)cc21` [Compound 514] it was below 5.70.
The same measure, in the same setting: in the case of `CCS(=O)(=O)Nc1ccc(-c2cc3ccc(OC(F)F)cc3n2C)cc1` [Compound 515] it was 5.70 to 6.30; in that of `CCS(=O)(=O)Nc1ccc(-c2cc3ccc(OC(F)F)cc3n2C(C)C)cc1` [Compound 517], below 5.70.
Turning to `CCCn1c(-c2ccc(NS(=O)(=O)CC)cc2)c(C#N)c2ccc(OC(F)F)cc21` [Compound 522], the pIC50 was above 6.30.
As for `CCS(=O)(=O)Nc1ccc(-c2c(C#N)c3ccc(OC(F)F)cc3n2C(C)C)cc1` [Compound 524], the pIC50 is above 6.30.
